{"source": "patent US11110096B2", "about": "“Combination therapies” (Infinity Pharmaceuticals, Inc., priority 2014, dated 2021)", "type_in_all_cases": "cell-based", "conditions_in_all_cases": "combination with Compound 1", "key": {"SU-DHL-10-epst": {"system": "SU-DHL-10-epst", "experiment": "Combination study Compound 1 + Bcl-2 inhibitor, ATPLite 72 h, DLBCL GCB cell line", "source_text": "(§1) The method is described as follows."}, "Farage": {"system": "Farage", "experiment": "Combination study Compound 1 + Bcl-2 inhibitor, ATPLite 72 h, DLBCL GCB cell line", "source_text": "as §1"}, "OCI-Ly7": {"system": "OCI-Ly7", "experiment": "Combination study Compound 1 + Bcl-2 inhibitor, ATPLite 72 h, DLBCL GCB cell line", "source_text": "as §1"}, "WSU-NHL": {"system": "WSU-NHL", "experiment": "Combination study Compound 1 + Bcl-2 inhibitor, ATPLite 72 h, follicular lymphoma cell line", "source_text": "(§2) The method is described as follows. […] Additive effect is CI=1.0. […] Antagonistic effect is CI>1.0."}, "NCI-H929": {"system": "NCI-H929", "experiment": "Combination study Compound 1 + Bcl-2 inhibitor, ATPLite 72 h, multiple myeloma cell line", "source_text": "(§3) The method is described as follows. […] Additive effect is CI=1.0. […] Antagonistic effect is CI>1.0. […] These cell lines include NCI-H929, OMP-2, and RPMI-8226."}, "OPM-2": {"system": "OPM-2", "experiment": "Combination study Compound 1 + Bcl-2 inhibitor, ATPLite 72 h, multiple myeloma cell line", "source_text": "as §3"}, "RPMI-8226": {"system": "RPMI-8226", "experiment": "Combination study Compound 1 + Bcl-2 inhibitor, ATPLite 72 h, multiple myeloma cell line", "source_text": "as §3"}, "TMD8": {"system": "TMD8", "experiment": "Combination study Compound 1 + Bcl-2 inhibitor, ATPLite 72 h, DLBCL ABC cell line", "source_text": "as §1"}, "HBL-1": {"system": "HBL-1", "experiment": "Combination study Compound 1 + Bcl-2 inhibitor, ATPLite 72 h, DLBCL ABC cell line", "source_text": "as §1"}, "OCI-Ly3": {"system": "OCI-Ly3", "experiment": "Combination study Compound 1 + Bcl-2 inhibitor, ATPLite 72 h, DLBCL ABC cell line", "source_text": "as §1"}, "U-2932": {"system": "U-2932", "experiment": "Combination study Compound 1 + Bcl-2 inhibitor, ATPLite 72 h, DLBCL ABC cell line", "source_text": "as §1"}, "GRANTA-519": {"system": "GRANTA-519", "experiment": "Combination study Compound 1 + Bcl-2 inhibitor, ATPLite 72 h, mantle cell lymphoma cell line", "source_text": "(§4) The method is described as follows. […] These cell lines include GRANTA-519, Jeko-1 and Mino."}, "Jeko-1": {"system": "Jeko-1", "experiment": "Combination study Compound 1 + Bcl-2 inhibitor, ATPLite 72 h, mantle cell lymphoma cell line", "source_text": "as §4"}, "HH": {"system": "HH", "experiment": "Combination study Compound 1 + Bcl-2 inhibitor, ATPLite 72 h, T-cell lymphoma cell line", "source_text": "(§5) The method is described as follows. […] The cell line includes HH and Karpas-299."}, "KARPAS-299": {"system": "KARPAS-299", "experiment": "Combination study Compound 1 + Bcl-2 inhibitor, ATPLite 72 h, T-cell lymphoma cell line", "source_text": "as §5"}, "Mino": {"system": "Mino", "experiment": "Combination study Compound 1 + Bcl-2 inhibitor, ATPLite 72 h, mantle cell lymphoma cell line", "source_text": "The method is described as follows. […] Additive effect is CI=1.0. […] Antagonistic effect is CI>1.0. […] These cell lines include GRANTA-519, Jeko-1 and Mino."}, "KARPAS-422": {"system": "KARPAS-422", "experiment": "Combination study Compound 1 + Bcl-2 inhibitor, ATPLite 72 h, follicular lymphoma cell line", "source_text": "as §1"}, "RL": {"system": "RL", "experiment": "Combination study Compound 1 + Bcl-2 inhibitor, ATPLite 72 h, follicular lymphoma cell line", "source_text": "as §1"}, "DOHH-2": {"system": "DOHH-2", "experiment": "Combination study Compound 1 + Bcl-2 inhibitor, ATPLite 72 h, DLBCL GCB cell line", "source_text": "as §2"}, "SU-DHL-4-epst": {"system": "SU-DHL-4-epst", "experiment": "Combination study Compound 1 + Bcl-2 inhibitor, ATPLite 72 h, DLBCL GCB cell line", "source_text": "as §2"}}}
{"smiles": "CC1(C)CCC(c2ccc(Cl)cc2)=C(CN2CCN(c3ccc(C(=O)NS(=O)(=O)c4ccc(N[C@H](CCN5CCOCC5)CSc5ccccc5)c(S(=O)(=O)C(F)(F)F)c4)cc3)CC2)C1", "note": "[ABT-263, (R)-4-(4-((4′-chloro-4,4-dimethyl-3,4,5,6-tetrahydro-[1,1′-biphenyl]-2-yl)methyl)piperazin-1-yl)-N-((4-((4-morpholino-1-(phenylthio)butan-2-yl)amino)-3((trifluoromethyl)sulfonyl)phenyl)sulfonyl)benzamide]", "values": [{"measurement": "CI50 growth inhibition", "setting": "SU-DHL-10-epst", "result": "U (U=0.7 to <1)"}, {"measurement": "CI50 inhibition", "setting": "SU-DHL-10-epst", "result": "U (U=0.7 to <1)"}, {"measurement": "Synergy score growth inhibition", "setting": "SU-DHL-10-epst", "result": "A3 (A3=3 to <10)"}, {"measurement": "Synergy score inhibition", "setting": "SU-DHL-10-epst", "result": "A2 (A2=1 to <3)"}, {"measurement": "CI50 growth inhibition", "setting": "Farage", "result": "T (T=0.5 to <0.7)"}, {"measurement": "CI50 inhibition", "setting": "Farage", "result": "T (T=0.5 to <0.7)"}, {"measurement": "Synergy score growth inhibition", "setting": "Farage", "result": "A3 (A3=3 to <10)"}, {"measurement": "Synergy score inhibition", "setting": "Farage", "result": "A2 (A2=1 to <3)"}, {"measurement": "CI50 growth inhibition", "setting": "OCI-Ly7", "result": "W (W=≥1)"}, {"measurement": "Synergy score growth inhibition", "setting": "OCI-Ly7", "result": "A1 (A1=0.0001 to <1)"}, {"measurement": "Synergy score inhibition", "setting": "OCI-Ly7", "result": "A1 (A1=0.0001 to <1)"}, {"measurement": "CI50 growth inhibition", "setting": "WSU-NHL", "result": "T (T=0.5 to <0.7)"}, {"measurement": "CI50 inhibition", "setting": "WSU-NHL", "result": "S (S=0.1 to <0.5)"}, {"measurement": "Synergy score growth inhibition", "setting": "WSU-NHL", "result": "A4 (A4=≥10)"}, {"measurement": "Synergy score inhibition", "setting": "WSU-NHL", "result": "A3 (A3=3 to <10)"}, {"measurement": "CI50 growth inhibition", "setting": "NCI-H929", "result": "U (U=0.7 to <1)"}, {"measurement": "CI50 inhibition", "setting": "NCI-H929", "result": "T (T=0.5 to <0.7)"}, {"measurement": "Synergy score growth inhibition", "setting": "NCI-H929", "result": "A2 (A2=1 to <3)"}, {"measurement": "Synergy score inhibition", "setting": "NCI-H929", "result": "A2 (A2=1 to <3)"}, {"measurement": "CI50 growth inhibition", "setting": "OPM-2", "result": "T (T=0.5 to <0.7)"}, {"measurement": "CI50 inhibition", "setting": "OPM-2", "result": "U (U=0.7 to <1)"}, {"measurement": "Synergy score growth inhibition", "setting": "OPM-2", "result": "A3 (A3=3 to <10)"}, {"measurement": "Synergy score inhibition", "setting": "OPM-2", "result": "A2 (A2=1 to <3)"}, {"measurement": "CI50 growth inhibition", "setting": "RPMI-8226", "result": "T (T=0.5 to <0.7)"}, {"measurement": "CI50 inhibition", "setting": "RPMI-8226", "result": "U (U=0.7 to <1)"}, {"measurement": "Synergy score growth inhibition", "setting": "RPMI-8226", "result": "A3 (A3=3 to <10)"}, {"measurement": "Synergy score inhibition", "setting": "RPMI-8226", "result": "A2 (A2=1 to <3)"}, {"measurement": "CI50 growth inhibition", "setting": "TMD8", "result": "S (S=0.1 to <0.5)"}, {"measurement": "CI50 inhibition", "setting": "TMD8", "result": "T (T=0.5 to <0.7)"}, {"measurement": "Synergy score growth inhibition", "setting": "TMD8", "result": "A3 (A3=3 to <10)"}, {"measurement": "Synergy score inhibition", "setting": "TMD8", "result": "A2 (A2=1 to <3)"}, {"measurement": "CI50 growth inhibition", "setting": "HBL-1", "result": "S (S=0.1 to <0.5)"}, {"measurement": "CI50 inhibition", "setting": "HBL-1", "result": "U (U=0.7 to <1)"}, {"measurement": "Synergy score growth inhibition", "setting": "HBL-1", "result": "A3 (A3=3 to <10)"}, {"measurement": "Synergy score inhibition", "setting": "HBL-1", "result": "A2 (A2=1 to <3)"}, {"measurement": "CI50 growth inhibition", "setting": "OCI-Ly3", "result": "U (U=0.7 to <1)"}, {"measurement": "CI50 inhibition", "setting": "OCI-Ly3", "result": "W (W=≥1)"}, {"measurement": "Synergy score growth inhibition", "setting": "OCI-Ly3", "result": "A3 (A3=3 to <10)"}, {"measurement": "Synergy score inhibition", "setting": "OCI-Ly3", "result": "A1 (A1=0.0001 to <1)"}, {"measurement": "CI50 growth inhibition", "setting": "U-2932", "result": "T (T=0.5 to <0.7)"}, {"measurement": "CI50 inhibition", "setting": "U-2932", "result": "T (T=0.5 to <0.7)"}, {"measurement": "Synergy score growth inhibition", "setting": "U-2932", "result": "A3 (A3=3 to <10)"}, {"measurement": "Synergy score inhibition", "setting": "U-2932", "result": "A2 (A2=1 to <3)"}, {"measurement": "CI50 growth inhibition", "setting": "GRANTA-519", "result": "S (S=0.1 to <0.5)"}, {"measurement": "CI50 inhibition", "setting": "GRANTA-519", "result": "W (W=≥1)"}, {"measurement": "Synergy score growth inhibition", "setting": "GRANTA-519", "result": "A3 (A3=3 to <10)"}, {"measurement": "Synergy score inhibition", "setting": "GRANTA-519", "result": "A1 (A1=0.0001 to <1)"}, {"measurement": "CI50 growth inhibition", "setting": "Jeko-1", "result": "S (S=0.1 to <0.5)"}, {"measurement": "CI50 inhibition", "setting": "Jeko-1", "result": "S (S=0.1 to <0.5)"}, {"measurement": "Synergy score growth inhibition", "setting": "Jeko-1", "result": "A3 (A3=3 to <10)"}, {"measurement": "Synergy score inhibition", "setting": "Jeko-1", "result": "A3 (A3=3 to <10)"}, {"measurement": "CI50 growth inhibition", "setting": "HH", "result": "U (U=0.7 to <1)"}, {"measurement": "CI50 inhibition", "setting": "HH", "result": "S (S=0.1 to <0.5)"}, {"measurement": "Synergy score growth inhibition", "setting": "HH", "result": "A3 (A3=3 to <10)"}, {"measurement": "Synergy score inhibition", "setting": "HH", "result": "A2 (A2=1 to <3)"}, {"measurement": "Synergy score growth inhibition", "setting": "KARPAS-299", "result": "A1 (A1=0.0001 to <1)"}, {"measurement": "Synergy score inhibition", "setting": "KARPAS-299", "result": "A1 (A1=0.0001 to <1)"}, {"measurement": "CI50 growth inhibition", "setting": "Mino", "result": "S (S=0.1 to <0.5)"}, {"measurement": "CI50 inhibition", "setting": "Mino", "result": "T (T=0.5 to <0.7)"}, {"measurement": "Synergy score growth inhibition", "setting": "Mino", "result": "A3 (A3=3 to <10)"}, {"measurement": "Synergy score inhibition", "setting": "Mino", "result": "A2 (A2=1 to <3)"}, {"measurement": "CI50 growth inhibition", "setting": "KARPAS-422", "result": "S (S=0.1 to <0.5)"}, {"measurement": "CI50 inhibition", "setting": "KARPAS-422", "result": "T (T=0.5 to <0.7)"}, {"measurement": "Synergy score growth inhibition", "setting": "KARPAS-422", "result": "A4 (A4=≥10)"}, {"measurement": "Synergy score inhibition", "setting": "KARPAS-422", "result": "A3 (A3=3 to <10)"}, {"measurement": "CI50 growth inhibition", "setting": "RL", "result": "U (U=0.7 to <1)"}, {"measurement": "CI50 inhibition", "setting": "RL", "result": "U (U=0.7 to <1)"}, {"measurement": "Synergy score growth inhibition", "setting": "RL", "result": "A3 (A3=3 to <10)"}, {"measurement": "Synergy score inhibition", "setting": "RL", "result": "A1 (A1=0.0001 to <1)"}, {"measurement": "CI50 growth inhibition", "setting": "DOHH-2", "result": "S (S=0.1 to <0.5)"}, {"measurement": "CI50 inhibition", "setting": "DOHH-2", "result": "S (S=0.1 to <0.5)"}, {"measurement": "Synergy score growth inhibition", "setting": "DOHH-2", "result": "A4 (A4=≥10)"}, {"measurement": "Synergy score inhibition", "setting": "DOHH-2", "result": "A3 (A3=3 to <10)"}, {"measurement": "CI50 growth inhibition", "setting": "SU-DHL-4-epst", "result": "T (T=0.5 to <0.7)"}, {"measurement": "CI50 inhibition", "setting": "SU-DHL-4-epst", "result": "S (S=0.1 to <0.5)"}, {"measurement": "Synergy score growth inhibition", "setting": "SU-DHL-4-epst", "result": "A4 (A4=≥10)"}, {"measurement": "Synergy score inhibition", "setting": "SU-DHL-4-epst", "result": "A3 (A3=3 to <10)"}]}
